From paper PMC9265050, “Inhibition of RNA Binding in SND1 Increases the Levels of miR-1-3p and Sensitizes Cancer Cells to Navitoclax” (Cancers, 2022)

T1: SN3-SN4-TSN (340-888) (Homo sapiens, UniProt Q7KZF4)
T1 construct: gene SND1; SN3-SN4-TSN domain fragment, residues 340-888; N-terminal GST tag cut with TEV protease; E. coli Rosetta 2 (DE3)
T1 sequence (Q7KZF4 340-888): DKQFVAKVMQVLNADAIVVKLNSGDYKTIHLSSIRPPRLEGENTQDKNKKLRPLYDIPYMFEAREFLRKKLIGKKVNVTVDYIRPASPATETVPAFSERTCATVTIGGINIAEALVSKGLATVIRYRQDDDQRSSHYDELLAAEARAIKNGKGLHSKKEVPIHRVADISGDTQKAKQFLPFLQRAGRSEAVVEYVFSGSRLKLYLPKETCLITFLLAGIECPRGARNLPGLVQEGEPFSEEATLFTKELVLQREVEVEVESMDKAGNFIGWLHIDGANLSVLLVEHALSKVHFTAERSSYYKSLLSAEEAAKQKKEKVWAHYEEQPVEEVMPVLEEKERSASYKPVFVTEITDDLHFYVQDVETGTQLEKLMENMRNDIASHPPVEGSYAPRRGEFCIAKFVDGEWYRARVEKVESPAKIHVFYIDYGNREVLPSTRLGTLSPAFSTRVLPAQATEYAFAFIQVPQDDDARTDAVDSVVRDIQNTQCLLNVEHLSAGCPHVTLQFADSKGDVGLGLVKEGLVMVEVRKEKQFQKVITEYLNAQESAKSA

T2: SN1-SN2 (16-339) (Homo sapiens, UniProt Q7KZF4)
T2 construct: gene SND1; SN1-SN2 domain fragment, residues 16-339; N-terminal GST tag cut with TEV protease; E. coli Rosetta 2 (DE3)
T2 sequence (Q7KZF4 16-339): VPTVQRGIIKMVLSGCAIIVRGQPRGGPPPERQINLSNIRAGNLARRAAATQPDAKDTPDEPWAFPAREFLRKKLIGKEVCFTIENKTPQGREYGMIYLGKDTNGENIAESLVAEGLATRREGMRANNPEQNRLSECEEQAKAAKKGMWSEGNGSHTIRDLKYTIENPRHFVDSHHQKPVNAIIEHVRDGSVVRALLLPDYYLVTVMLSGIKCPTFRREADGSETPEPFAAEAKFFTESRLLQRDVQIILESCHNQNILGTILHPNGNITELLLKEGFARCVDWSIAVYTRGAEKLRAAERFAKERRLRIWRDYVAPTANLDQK


Experiments:
[1] = molecular target: T1, SN3-SN4-TSN (340-888); assay: isothermal titration calorimetry, one-site model; assay type: binding
Source text: isothermal titration calorimetry, one-site model on SN3-SN4-TSN (340-888)

[2] = molecular target: T2, SN1-SN2 (16-339); assay: isothermal titration calorimetry, one-site model; assay type: binding
Source text: isothermal titration calorimetry, one-site model on SN1-SN2 (16-339)

[3] = molecular target: SND1 full-length (UniProt Q7KZF4 1-910); assay: fluorescence polarization; high affinity, Kd only in figure; inhibited by suramin, not by navitoclax; FP: 20 mM HEPES pH 7.5, 100 mM NaCl, 3 nM labelled RNA, 25 C; EMSA: same buffer with 5 mM EGTA or 5 mM CaCl2, room temperature 1 or 4 h, 20% PAGE 1xTBE 4 C; conditions: protein: recombinant; tags: GST tag removed by TEV; label: 5' 6-FAM; single strand
Chain of SND1 full-length (Q7KZF4 whole entry): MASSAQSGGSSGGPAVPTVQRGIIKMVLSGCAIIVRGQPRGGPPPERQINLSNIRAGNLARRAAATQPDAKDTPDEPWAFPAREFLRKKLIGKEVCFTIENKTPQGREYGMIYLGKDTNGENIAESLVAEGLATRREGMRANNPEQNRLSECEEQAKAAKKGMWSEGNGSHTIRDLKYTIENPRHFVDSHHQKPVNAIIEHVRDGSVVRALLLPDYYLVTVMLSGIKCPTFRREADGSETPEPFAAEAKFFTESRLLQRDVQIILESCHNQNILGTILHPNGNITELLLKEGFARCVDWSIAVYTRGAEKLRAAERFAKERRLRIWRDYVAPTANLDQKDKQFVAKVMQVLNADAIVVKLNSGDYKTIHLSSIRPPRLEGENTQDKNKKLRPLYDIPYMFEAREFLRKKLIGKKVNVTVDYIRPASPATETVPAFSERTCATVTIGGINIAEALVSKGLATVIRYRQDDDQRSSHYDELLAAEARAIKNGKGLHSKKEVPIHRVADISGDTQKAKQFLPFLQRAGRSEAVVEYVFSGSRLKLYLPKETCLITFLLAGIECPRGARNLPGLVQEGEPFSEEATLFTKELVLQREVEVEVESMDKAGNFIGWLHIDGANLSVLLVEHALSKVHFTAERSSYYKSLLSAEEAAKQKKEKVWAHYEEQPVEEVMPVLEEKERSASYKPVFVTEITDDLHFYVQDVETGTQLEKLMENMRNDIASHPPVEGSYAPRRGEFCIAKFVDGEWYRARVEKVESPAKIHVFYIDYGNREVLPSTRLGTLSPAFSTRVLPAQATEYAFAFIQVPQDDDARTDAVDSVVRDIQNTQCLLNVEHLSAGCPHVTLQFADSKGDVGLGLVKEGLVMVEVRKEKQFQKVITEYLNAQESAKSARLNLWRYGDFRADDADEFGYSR

Row | Kd [1] [µM] | Kd [2] [µM] | Molecule | binding result [3]
1 | 5.59 | 12.1 | Cc1ccc(C(=O)Nc2ccc(S(=O)(=O)O)c3cc(S(=O)(=O)O)cc(S(=O)(=O)O)c23)cc1NC(=O)c1cccc(NC(=O)Nc2cccc(C(=O)Nc3cc(C(=O)Nc4ccc(S(=O)(=O)O)c5cc(S(=O)(=O)O)cc(S(=O)(=O)O)c45)ccc3C)c2)c1 [Suramin] | 
2 |  |  | UGGAAUGUAAAGAAGUAUGUAU (ssRNA) [miR-1-3p FP tracer] | binds
